Measurements reported in paper PMC10141516 (Pharmaceutics, 2023).
Each block holds one molecule with its values, some of them ahead of it.

Experiment: Apparent solubility test (USP <1236>)
Conditions: for solubility: 20 °C, thermodynamic from solid; for apparent solubility, USP <1236> term: other solvents (water, pH 1.2 to 12.0 buffers)
Method: Then, 200 μL of each solvent was added and stirred at 400 rpm. The temperature of the sample was maintained at 20 ± 2 °C. After shaking for 30 s every 5 min, 200 μL of each solvent was added until no particles of the API were visible. The apparent solubility of the two main components was estimated through the point at which all of the API dissolved and became clear.

- solubility (acetonitrile, organic solvent or mixture): 33 to 100 mg/mL
- solubility (buffer solution, pH 3, aqueous buffer): 0.1 to 1 mg/mL
- solubility (buffer solution, pH 4, aqueous buffer): 0.1 to 1 mg/mL
- solubility (buffer solution, pH 5, aqueous buffer): 0.1 to 1 mg/mL
- solubility (buffer solution, pH 6, aqueous buffer): 0.1 to 1 mg/mL
- solubility (buffer solution, pH 6.8, aqueous buffer): 0.1 to 1 mg/mL
- solubility (buffer solution, pH 7, aqueous buffer): 0.1 to 1 mg/mL
- solubility (buffer solution, pH 8, aqueous buffer): 0.1 to 1 mg/mL
- solubility (buffer solution, pH 9, aqueous buffer): 0.1 to 1 mg/mL
- solubility (buffer solution, pH 10, aqueous buffer): 0.1 to 1 mg/mL
- solubility (buffer solution, pH 11, aqueous buffer): 0.1 to 1 mg/mL
- solubility (deionized water, water): 0.1 to 1 mg/mL
- solubility (ethanol, organic solvent or mixture): 33 to 100 mg/mL
- solubility (methanol, organic solvent or mixture): 100 to 1000 mg/mL
- apparent solubility, USP <1236> term: very slightly soluble
- solubility (pH 1.2 buffer solution, pH 1.2, aqueous buffer): 0.1 to 1 mg/mL
- solubility (pH 2.0 buffer solution, pH 2, aqueous buffer): 0.1 to 1 mg/mL
- solubility (pH 12.0 buffer solution, pH 12, aqueous buffer): 0.1 to 1 mg/mL
Structure (SMILES): CCOc1ccc(Cc2cc([C@@H]3O[C@H](CO)[C@@H](O)[C@H](O)[C@H]3O)ccc2Cl)cc1 [Dapagliflozin, (1S)-1,5-Anhydro-1-C-[4-chloro-3-[(4-ethoxyphenyl)methyl]phenyl]-D-glucitol (S)-propane-1,2-diol (1:1) monohydrate]

Structure (SMILES): N[C@@H](CC(=O)N1CCn2c(nnc2C(F)(F)F)C1)Cc1cc(F)c(F)cc1F.O.O=P(O)(O)O [Sitagliptin, (R)-3-Amino-1-(3-(trifluoromethyl)-5,6-dihydro-[1,2,4]triazolo[4,3-a]pyrazin-7(8H)-yl)-4-(2,4,5-trifluorophenyl)butan-1-one phosphate monohydrate]
- solubility (organic solvent or mixture): < 0.1 mg/mL
- solubility (pH 1.2, aqueous buffer): 1 to 10 mg/mL
- solubility (pH 2, aqueous buffer): 1 to 10 mg/mL
- solubility (pH 3, aqueous buffer): 1 to 10 mg/mL
- solubility (pH 4, aqueous buffer): 1 to 10 mg/mL
- solubility (pH 5, aqueous buffer): 1 to 10 mg/mL
- solubility (pH 6, aqueous buffer): 1 to 10 mg/mL
- solubility (pH 6.8, aqueous buffer): 1 to 10 mg/mL
- solubility (pH 7, aqueous buffer): 1 to 10 mg/mL
- solubility (pH 8, aqueous buffer): 1 to 10 mg/mL
- solubility (pH 9, aqueous buffer): 1 to 10 mg/mL
- solubility (pH 10, aqueous buffer): 0.1 to 1 mg/mL
- solubility (pH 11, aqueous buffer): 1 to 10 mg/mL
- solubility (pH 12, aqueous buffer): 1 to 10 mg/mL
- solubility (water): 1 to 10 mg/mL
- apparent solubility, USP <1236> term: soluble
